The test system of this assay is Plasmodium falciparum. Briefly: GSK_TCMDC: Inhibition of Plasmodium falciparum 3D7 in whole erythrocytes, using parasite LDH activity as an index of growth. It counts as functional, organism-based. Conditions: Plasmodium falciparum, 3D7.
The compound `CCN(CC)CCN(Cc1ccc(-c2ccc(C(F)(F)F)cc2)cc1)C(=O)Cn1c(CCc2cccc(F)c2F)nc(=O)c2ccc(F)cc21` came in with an XC50 of 360 nM. With `Cc1ccc(NC(=O)N2CCCN(CCCCCNC(=O)/C=C/c3ccc(Cl)c(Cl)c3)CC2)cc1` the figure was 758 nM; with `O=C(O)c1ccc2nc(-c3ccccn3)c(-c3ccccn3)nc2c1`, 217 nM; with `O=C(/C=C/c1ccc(Cl)c(Cl)c1)NC1CCC(CN2CCC(c3c[nH]c4ccccc34)C(O)C2)CC1` (centres undefined), 719 nM. Take `Cc1nn(CC(O)Cn2c3ccc(Br)cc3c3cc(Br)ccc32)c(C)c1Br` (centres undefined): the XC50 turned out to be 713 nM. In turn, `Clc1ccc(Cl)c2[nH]c(CNCCCNc3nc4ccccc4[nH]3)cc12` gave an XC50 of 163 nM. In the case of `Cc1cc(N[C@@H](Cc2ccccc2)C(=O)NCc2cccc(F)c2)nc(Nc2ccccc2)n1`, the XC50 amounted to 930 nM. Under `c1cncc(Oc2ccc(Nc3ccnc4cc(-c5cccc(CN6CCCCC6)c5)ccc34)cc2)c1` stands 124 nM; under `CS(=O)(=O)N1CC2(CCN(CCC(NC(=O)/C=C/c3ccccc3)c3ccc(Cl)c(Cl)c3)CC2)c2ccccc21` (centres undefined), 782 nM; under `CCCCCC(C)C(C)c1cc(O)c2c(c1)OC(C)(C)CC2(O)c1ccnn1C` (centres undefined), 964 nM.

As for `O=c1cc(NCCCNCc2[nH]c3cc(Cl)ccc3c2Cl)[nH]c2ccccc12`, the XC50 stood at 910 nM. The compound `CC(=O)/N=C1\N=C(NC(C)=O)NC(C)(C)N1OCCCOc1ccc(Cl)c(Cl)c1` displayed an XC50 of 8.33 nM. For the compound `NCC(=O)c1cc2c(cc1N)OCCO2`, the XC50 is 1360 nM. `CCc1cc(Br)c(CNCCCNc2cc(=O)c3ccccc3[nH]2)s1` returned an XC50 of 949 nM. Take `Fc1cccc(COc2ccc(Nc3ncnc4cc(/C=C/[C@@H]5CCCN5)sc34)cc2Cl)c1`: the XC50 turned out to be 592 nM.

`COc1ccc(S(=O)(=O)N(CC(=O)NN=C(C)c2cccs2)c2cc(C)cc(C)c2)cc1OC` gave an XC50 of 141 nM. `COc1cc(CN2CCC(C(=O)Nc3ccc(-c4cccc(C)c4)cc3)CC2)ccc1O`: the XC50 amounted to 1120 nM.

On to `N=c1c2nc(-c3c(F)cccc3Cl)[nH]c(=O)c2[nH]c(=O)n1-c1ccccc1`, for which the XC50 stood at 678 nM. The compound `O=C(Nc1cccc(CN2CCN(Cc3ccc(O)cc3)CC2)c1)c1cccc(C(F)(F)F)c1` registered an XC50 of 1210 nM. As for `CC(C)Oc1ccc(CCCON2C(=N)N=C(N)NC2(C)C)cc1`, the XC50 was 3.2 nM. On to `CCOC(=O)c1c(C)noc1Nc1ccc(OC)cc1`, for which the XC50 is 672 nM.

`COc1ccc(NC(=O)/C=C/c2ccccc2Cl)cc1OCCN1CCC(N(C)C)CC1` came in with an XC50 of 969 nM.

`COc1cccc(CN2CCCN(Cc3cccc(NC(=O)c4cc5ccccc5s4)c3)CC2)c1` yielded an XC50 of 1010 nM. On to `c1ccc(Oc2ccc(Nc3ccnc4cc(-c5ccc(CNCCN6CCOCC6)o5)ccc34)cc2)cc1`, for which the XC50 was 439 nM. As to `N=C(N)NC(=O)Nc1cc(Cl)c(Cl)c(Cl)c1`, the XC50 was 588 nM.

Take `CN1CCN(c2ccnc3ccc(NC(=O)Nc4ccc(Cl)c(Cl)c4)cc23)CC1`: the XC50 amounted to 876 nM. The compound `CS(=O)(=O)CCNCc1cccc(-c2ccc3c(Nc4ccc(Oc5ccccc5)cc4)ccnc3c2)c1` had an XC50 of 691 nM.

`COc1ccc(CN2CCC(CNCC(c3ccccc3)c3ccccc3)CC2)cc1` gave an XC50 of 228 nM. Consider `Clc1ccc(OCCC2CCN(CCCCCCN3CCCCC3)CC2)cc1Cl`, for which the XC50 was found to be 1140 nM. Compound `CCOC(=O)c1ccc(NC(=O)Nc2ccc(-c3ccc(-c4nc5cccc(C)c5[nH]4)s3)cc2)cc1` displayed an XC50 of 199 nM.

Turning to `N#CCCN1CCN(Cc2cccc(-c3ccc(-c4nc5cc(F)ccc5[nH]4)cc3)c2)CC1`, the XC50 worked out at 599 nM. Regarding `Oc1cc2c(cc1CN1CCN(Cc3cccs3)CC1)CCC2`, the XC50 came to 839 nM.

Regarding `O=C1CCCN1CCCNCc1cccc(-c2ccc(-c3nc4ccccc4[nH]3)s2)c1`, the XC50 was determined as 859 nM.

Turning to `Cc1cccc2c3c([nH]c12)C1(CCN(CCc2ccccc2)CC1)NC(C(=O)NCc1ccccc1)C3` (centres undefined), the XC50 was found to be 1000 nM. Under `CC(C)N1CCC(NCc2ccc(-c3ccc(Cl)cc3)cc2)CC1` stands 646 nM. With `CCOC(=O)C(Oc1ccc2ccccc2c1)C(=O)OCC` the figure was 756 nM; with `CC(=O)c1cccc(S(=O)(=O)NCCCNc2nc3cc(C)cc(C)c3cc2C#N)c1`, 914 nM. `CCCCN1CCN(Cc2cccc(NC(=O)c3ccc(Cl)c(Cl)c3)c2)CC1` gave an XC50 of 1160 nM. For `CC(C)(Oc1c(C2CCN(CCCCNC(=O)c3ccc(-c4ccc(Cl)cc4)cc3)CC2)ccc2c1CCCC2)C(N)=O`, the XC50 stood at 1090 nM. As for `CNC(=O)c1ccc2nc(C3CC3)n(CC3CCN(S(=O)(=O)c4cccc(Cl)c4)CC3)c2c1`, the XC50 was determined as 651 nM.

The compound `CC(C)n1c(C2CCN(CC3CCN(C(=O)/C=C/c4ccc(Cl)c(Cl)c4)CC3)CC2)nc2ccccc21` displayed an XC50 of 1030 nM.

As to `Cc1cc2nc(-c3ccc(C(=O)NC4CCN(Cc5ccccc5)CC4)cc3)[nH]c2cc1C`, the XC50 was determined as 743 nM. Take `Oc1ccc(CCCc2cc(Oc3c(I)cc(CCc4ncc[nH]4)cc3I)ccc2O)cc1`: the XC50 was 873 nM. As to `CC(C)n1cc(CN2CCCC(C(=O)Nc3cccc(-c4cc5ccccc5[nH]4)c3)C2)cn1` (centres undefined), the XC50 turned out to be 999 nM. With `CCc1n[nH]c(C(=O)Nc2cccc(N3CCCC3)c2)c1C`, the XC50 was found to be 1460 nM. In turn, `COc1ccc(Cn2c(Nc3cccc(C(F)(F)F)c3)nc3ccc(C(=O)NCCN4CCCC4)cc32)cc1Cl` gave an XC50 of 753 nM. `CC(=NNC(S)=NC(C)(C)C)c1ccccn1` had an XC50 of 158 nM. `N#Cc1ccc2c(c1)CCN(CCC1CCC(NC(=O)Nc3cnc4ccccc4c3)CC1)C2` (centres undefined) showed an XC50 of 768 nM. With `O=C(O)c1ccc(NC(=O)C2CC(=O)N(Cc3ccc(Cl)cc3)C(=Nc3ccc(Cl)cc3)S2)cc1` (centres undefined), the XC50 was 530 nM. `CCNC(=O)CCc1cccc(Br)c1` displayed an XC50 of 533 nM.

The compound `Cc1cc(N(C)C)nc(Nc2ccc(NC(=O)C(C)Oc3ccccc3)cc2)n1` (centres undefined) yielded an XC50 of 952 nM. For `COc1ccc(CCCCN2C(=O)C(c3ccccc3)(c3ccccc3)N=C2N)cc1`, the XC50 stood at 858 nM. `N#Cc1ccc2c(c1)CCN(CCC1CCC(NC(=O)c3cc4ccc(Br)cc4[nH]3)CC1)C2` (centres undefined) yielded an XC50 of 756 nM. `COc1ccc(CN2CCC(CNCCc3ccccc3Oc3ccccc3)CC2)cc1`: the XC50 worked out at 1100 nM. On to `Cc1cc(N2CC=CCC2)nc(NC(=N)Nc2ccc(Br)cc2)n1`, for which the XC50 worked out at 690 nM. Under `c1ccc(CCNCc2ccc(-c3cccc(-c4nc5ccccc5[nH]4)c3)cc2)nc1` stands 619 nM; under `Cc1cc(-c2cccc(CNC3CCN(C)CC3)c2)ccc1S(=O)(=O)NCc1ccccc1`, 819 nM. `CCN(CC)CCCC(C)Nc1ccnc2cc(C#N)ccc12` (centres undefined) gave an XC50 of 139 nM. With `CN1CCN(Cc2cc(NC(=O)c3ccc(-c4ccc(Cl)cc4Cl)cc3)ccc2-c2ccccc2)CC1`, the XC50 was determined as 973 nM.

`CCOc1ccc2c(=NN=Cc3cccc(F)c3)cc(C)[nH]c2c1` yielded an XC50 of 714 nM. `COc1ccc(CNC2CCN(C)CC2)cc1-c1ccc(S(=O)(=O)NCc2ccccc2)c(F)c1` yielded an XC50 of 800 nM. Compound `N=C1N=C(N)NC2(CCCCC2)N1OCC1CCCCC1` registered an XC50 of 155 nM.

`c1ccc(C(c2cccs2)N2CCN(Cc3ccc(OCCCN4CCCCC4)cc3)CC2)cc1` (centres undefined) returned an XC50 of 1230 nM. Under `O=C(/C=C/c1ccc(Cl)c(Cl)c1)N1CCN(C(=O)Nc2ccc(C(F)(F)F)cc2)CC1` stands 666 nM; under `CC(C)Cn1c(N)cc(=O)n(C)c1=O`, 978 nM; under `CC1CCCCN1CCCNC(=O)c1cccc(-c2cc3cc(Cl)c(Cl)cc3[nH]2)c1` (centres undefined), 881 nM. Regarding `CC(=NO)C1=C(O)C(c2ccccc2)N(c2ccccc2)C1=O` (centres undefined), the XC50 was 701 nM.

For the compound `CCOc1cccc(C(=O)Nc2ccc(-c3nc4ccccc4[nH]3)cc2)c1`, the XC50 was 1010 nM. Compound `CS(=O)(=O)c1ccc2[nH]c(-c3cc(-c4cccc(F)c4)cnc3N)nc2c1` came in with an XC50 of 1090 nM. `Cn1c(-c2ccccc2)cc2c3c(=O)cc(C(F)(F)F)[nH]c3ccc21` yielded an XC50 of 849 nM.

With `CC(C)Cc1cn(-c2nc(-c3nc4ccccc4[nH]3)cs2)c2ccncc12`, the XC50 amounted to 90 nM. Under `CCCNc1ccc2nccc(CCN3CCC(NCc4ccc5c(c4)NC(=O)CS5)CC3)c2n1` stands 580 nM; under `OCCn1c(CNCCCNc2nc3ccccc3[nH]2)cc2c(Cl)cc(Cl)cc21`, 806 nM; under `O=C(Nc1cccc(CN2CCN(Cc3cccc(O)c3)CC2)c1)c1ccc(Cl)c(Cl)c1`, 411 nM. `Cn1c2c(c3ccccc31)CN(CCC1(c3ccc(Cl)c(Cl)c3)CN(C(=O)c3ccccc3)CCO1)CC2` (centres undefined) gave an XC50 of 311 nM. Under `Cn1c(Sc2ncnc3sccc23)nc2ccccc21` stands 191 nM. `CCOc1ccc(C(=O)Nc2cc(Br)c3c(c2)CNCC3)cc1C(F)(F)F` registered an XC50 of 939 nM.

Regarding `COc1ccc(S(=O)(=O)NCCCC2CCN(CCCCCNC(=O)C=Cc3ccc(Cl)c(Cl)c3)CC2)cc1`, the XC50 was 1040 nM.

Turning to `c1ccc(-c2n[nH]cc2Nc2ccnc3ccccc23)nc1`, the XC50 is 819 nM. For the compound `Cn1c(N)cc(-c2cccc(I)c2)c2c(=O)nc(N)nc1-2`, the XC50 turned out to be 269 nM. For the compound `c1cc(CN2CCN(CCN3CCOCC3)CC2)cc(-c2ccc(-c3nc4ccccc4[nH]3)cc2)c1`, the XC50 amounted to 131 nM. On to `COc1cc(OC)c(OC)cc1CN1CCC2(CC1)CN(Cc1ccc(Cl)c(Cl)c1)C(=O)O2`, for which the XC50 was found to be 815 nM. Compound `CCN(CCNC(=O)Nc1cc(C(F)(F)F)cc(C(F)(F)F)c1)c1cccc(C)c1` gave an XC50 of 804 nM. With `O=C(/C=C/c1ccc(Cl)cc1)NCCCCCN1CCC(C(=O)Nc2ccc(Cl)cc2)CC1` the figure was 832 nM; with `CN1CC=C(c2c[nH]c3ccc(C(=O)c4nccs4)cc23)CC1`, 242 nM; with `O=C(/C=C/c1ccc(Cl)cc1)Nc1ccc2nc(CN3CCCC3)ccc2c1`, 82.1 nM. Under `Cc1cccc2nc(-c3cccc(-c4ccc(NC(=O)CN5CCN(C)CC5)cc4)c3)[nH]c12` stands 562 nM. The compound `COc1cccc(OC)c1C(=O)Nc1cccc(-c2nn3ccccc3c2-c2ccnc(Nc3cccc(F)c3)n2)c1` gave an XC50 of 749 nM. Compound `CCCN1CCC(NCc2cn(C)nc2-c2ccc(Oc3ccccc3)cc2)CC1` registered an XC50 of 1440 nM.

Source of the values: ChEMBL document CHEMBL1157539, “Thousands of chemical starting points for antimalarial lead identification” (Nature, 2010).
